# Biological target: hMC2 receptor (Homo sapiens, UniProt Q01718)
# Assay: hMC2 membrane binding assay ([125I]ACTH (1-39) Tyr23, SPA)
# Design: scale not given here
# Settings: crude hMC2R membranes from CRE-bla-CHO-K1 cells expressing hMC2 receptor and hMRAP; [125I]ACTH (1-39) Tyr23 0.2 nM; 1.5 hours at room temperature; read-out: MC2R binding potency
# Summary of the method: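 CRE-bla-CHO-K1 membranes co-expressing hMC2 receptor and hMRAP, preincubated with WGA PVT SPA beads in pH 7.4 HEPES/MgCl2/CaCl2/0.2% BSA buffer. Compounds (typically 0–10,000 nM final) compete with 0.2 nM [125I]ACTH(1-39) Tyr23 for 1.5 h at room temperature. SPA counts give Ki by non-linear regression.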
# Sequence of hMC2 receptor (Q01718 whole entry): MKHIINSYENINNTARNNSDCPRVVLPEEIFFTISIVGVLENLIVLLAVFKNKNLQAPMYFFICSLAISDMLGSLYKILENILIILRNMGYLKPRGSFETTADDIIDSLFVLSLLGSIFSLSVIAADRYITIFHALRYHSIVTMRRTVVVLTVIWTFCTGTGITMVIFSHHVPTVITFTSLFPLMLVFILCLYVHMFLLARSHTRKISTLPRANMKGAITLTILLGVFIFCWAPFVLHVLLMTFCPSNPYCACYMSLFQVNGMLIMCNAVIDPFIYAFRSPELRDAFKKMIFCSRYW
# Sequence of hMC2 receptor (Q8TCY5 whole entry partner): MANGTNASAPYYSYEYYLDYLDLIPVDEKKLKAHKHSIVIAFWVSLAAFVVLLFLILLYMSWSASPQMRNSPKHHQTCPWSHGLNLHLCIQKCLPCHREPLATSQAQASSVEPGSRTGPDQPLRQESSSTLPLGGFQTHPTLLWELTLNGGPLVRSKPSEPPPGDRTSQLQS
row,Ki [nM],SMILES
1,< 10,"CCOc1ncccc1-c1ccc(N2CCN(C(=O)c3ccc(Cl)cc3C#N)C[C@H]2CC)c(C(=O)NCCNC)n1 [Compound 1-171, 5-[(2R)-4-(4-chloro-2-cyanobenzoyl)-2-ethylpiperazin-1-yl]-2′-ethoxy-N-[2-(methylamino)ethyl]-[2,3′-bipyridine]-6-carboxamide]"
2,< 10,"CCOc1ncccc1-c1ccc(N2CCN(C(=O)C3CCc4cccc(Cl)c43)C[C@H]2CC)c(C(=O)N[C@@H]2CCN(C)C2)n1 (stereo partly drawn) [Compound 1-382, 5-[(2R)-4-(7-chloro-2,3-dihydro-1H-indene-1-carbonyl)-2-ethylpiperazin-1-yl]-2′-ethoxy-N-[(3R)-1-methylpyrrolidin-3-yl]-[2,3′-bipyridine]-6-carboxamide]"
3,10 to 100,"CC[C@@H]1CN(C(=O)c2ccc(C(F)(F)F)cc2Cl)CCN1c1ccc(-c2cccc(F)c2Cl)cc1C(=O)NCCN [Compound 1-9, N-(2-aminoethyl)-2′-chloro-4-[(2R)-4-[2-chloro-4-(trifluoromethyl)benzoyl]-2-ethylpiperazin-1-yl]-3′-fluoro-[1,1′-biphenyl]-3-carboxamide]"
4,< 10,"CCOc1ncccc1-c1ccc(N2CCN(C(=O)c3ccc(Cl)cc3C(F)(F)F)C[C@H]2CC)c(C(=O)N[C@@H]2CCN(C)C2)n1 [Compound 1-152, 5-[(2R)-4-[4-chloro-2-(trifluoromethyl)benzoyl]-2-ethylpiperazin-1-yl]-2′-ethoxy-N-[(3R)-1-methylpyrrolidin-3-yl]-[2,3′-bipyridine]-6-carboxamide]"
5,< 10,"CCOc1ncccc1-c1ccc(N2CCN(C(=O)c3ccc(OC)nc3C(F)(F)F)C[C@H]2CC)c(C(=O)N[C@@H]2CNC[C@H]2F)n1 [Compound 1-289, 2′-ethoxy-5-[(2R)-2-ethyl-4-[6-methoxy-2-(trifluoromethyl)pyridine-3-carbonyl]piperazin-1-yl]-N-[(3R,4R)-4-fluoropyrrolidin-3-yl]-[2,3′-bipyridine]-6-carboxamide]"
6,< 10,"CCOc1ncccc1-c1ccc(N2CCN(C(=O)[C@H]3CC[C@@H](C(F)(F)F)CC3)C[C@H]2CC)c(C(=O)N[C@@H]2CCN(C)C2)n1 [Compound 1-286, 2′-ethoxy-5-[(2R)-2-ethyl-4-[cis-4-(trifluoromethyl)cyclohexanecarbonyl]piperazin-1-yl]-N-[(3R)-1-methylpyrrolidin-3-yl]-[2,3′-bipyridine]-6-carboxamide]"
7,< 10,"CCOc1ccccc1-c1ccc(N2CCN(C(=O)C3(C(F)F)CCCC3)C[C@H]2CC)c(C(=O)N[C@@H]2CCN(C)C2)n1 [Compound 1-417, 3-[(2R)-4-[1-(difluoromethyl)cyclopentanecarbonyl]-2-ethylpiperazin-1-yl]-6-(2-ethoxyphenyl)-N-[(3R)-1-methylpyrrolidin-3-yl]pyridine-2-carboxamide]"
8,< 10,"CCOc1ncccc1-c1ccc(N2CCN(C(=O)C3(C(F)(F)F)CCCC3)C[C@H]2CC)c(C(=O)N[C@@H]2CCNC2)n1 [Compound 1-263, 2′-ethoxy-5-[(2R)-2-ethyl-4-[1-(trifluoromethyl)cyclopentanecarbonyl]piperazin-1-yl]-N-[(3R)-pyrrolidin-3-yl]-[2,3′-bipyridine]-6-carboxamide]"
9,< 10,"CCOc1ncccc1-c1ccc(N2CCN(C(=O)c3ccc(Cl)cc3N3CCNCC3)C[C@H]2CC)c(C(=O)N[C@@H]2CCNC2)c1 [Compound 1-90, 2-[(2R)-4-[4-chloro-2-(piperazin-1-yl)benzoyl]-2-ethylpiperazin-1-yl]-5-(2-ethoxypyridin-3-yl)-N-[(3R)-pyrrolidin-3-yl]benzamide]"
10,< 10,"CCOc1ncccc1-c1ccc(N2CCN(C(=O)N3CCc4cccc(C#N)c43)C[C@H]2CC)c(C(=O)NC2CN(C)C2)n1 [Compound 1-409, 5-[(2R)-4-(7-cyano-2,3-dihydro-1H-indole-1-carbonyl)-2-ethylpiperazin-1-yl]-2′-ethoxy-N-(1-methylazetidin-3-yl)-[2,3′-bipyridine]-6-carboxamide]"
11,< 10,"CCOc1ncccc1-c1ccc(N2CCN(C(=O)c3ccc(Cl)cc3C(F)(F)F)C[C@H]2CC)c(C(=O)NCCN(C)C)c1F [Compound 1-173, 6-[(2R)-4-[4-chloro-2-(trifluoromethyl)benzoyl]-2-ethylpiperazin-1-yl]-N-[2-(dimethylamino)ethyl]-3-(2-ethoxypyridin-3-yl)-2-fluorobenzamide]"
12,< 10,"CCOc1ccccc1-c1ccc(N2CCN(C(=O)c3ccc(Cl)cc3C(F)(F)F)C[C@H]2CC)c(C(=O)NC2CNC2)n1 [Compound 1-220, N-(azetidin-3-yl)-3-[(2R)-4-[4-chloro-2-(trifluoromethyl)benzoyl]-2-ethylpiperazin-1-yl]-6-(2-ethoxyphenyl)pyridine-2-carboxamide]"
13,< 10,"CCOc1ncccc1-c1ccc(N2CCN(C(=O)C34CCC(CC3)C4(C)C)C[C@H]2CC)c(C(=O)N[C@@H]2CCNC2)n1 [Compound 1-314, 5-[(2R)-4-{7,7-dimethylbicyclo[2.2.1]heptane-1-carbonyl}-2-ethylpiperazin-1-yl]-2′-ethoxy-N-[(3R)-pyrrolidin-3-yl]-[2,3′-bipyridine]-6-carboxamide]"
14,< 10,"CCOc1ncccc1-c1ccc(N2CCN(C(=O)N3CCc4cccc(F)c43)C[C@H]2CC)c(C(=O)N[C@@H]2CCNC2)n1 [Compound 1-350, 2′-ethoxy-5-[(2R)-2-ethyl-4-(7-fluoro-2,3-dihydro-1H-indole-1-carbonyl)piperazin-1-yl]-N-[(3R)-pyrrolidin-3-yl]-[2,3′-bipyridine]-6-carboxamide]"
15,< 10,"CCOc1ncccc1-c1ccc(N2CCN(C(=O)N3CCc4cccc(C#N)c43)C[C@H]2CC)c(C(=O)N[C@@H]2CCNC2)n1 [Compound 1-365, 5-[(2R)-4-(7-cyano-2,3-dihydro-1H-indole-1-carbonyl)-2-ethylpiperazin-1-yl]-2′-ethoxy-N-[(3R)-pyrrolidin-3-yl]-[2,3′-bipyridine]-6-carboxamide]"
16,< 10,"CCOc1ncccc1-c1ccc(N2CCN(C(=O)c3ccc(F)cc3C(F)F)C[C@H]2CC)c(C(=O)N[C@@H]2CCNC2)c1F [Compound 1-189, 6-[(2R)-4-[2-(difluoromethyl)-4-fluorobenzoyl]-2-ethylpiperazin-1-yl]-3-(2-ethoxypyridin-3-yl)-2-fluoro-N-[(3R)-pyrrolidin-3-yl]benzamide]"
17,< 10,"CCOc1ncccc1-c1ccc(N2CCN(C(=O)c3ccc(OC)nc3C(F)(F)F)C[C@H]2CC)c(C(=O)NC[C@@H]2CCN2C)n1 [Compound 1-245, 2′-ethoxy-5-[(2R)-2-ethyl-4-[6-methoxy-2-(trifluoromethyl)pyridine-3-carbonyl]piperazin-1-yl]-N-{[(2S)-1-methylazetidin-2-yl]methyl}-[2,3′-bipyridine]-6-carboxamide]"
18,< 10,"CCOc1ncccc1-c1ccc(N2CCN(C(=O)c3ccc(Cl)cc3C(F)(F)F)C[C@H]2CC)c(C(=O)NC[C@@H]2CCN2C)n1 [Compound 1-232, 5-[(2R)-4-[4-chloro-2-(trifluoromethyl)benzoyl]-2-ethylpiperazin-1-yl]-2′-ethoxy-N-{[(2S)-1-methylazetidin-2-yl]methyl}-[2,3′-bipyridine]-6-carboxamide]"
19,< 10,"CCOc1ccccc1-c1ccc(N2CCN(C(=O)n3ccc4cc(F)cc(C#N)c43)C[C@H]2CC)c(C(=O)N[C@@H]2CCN(C)C2)n1 [Compound 1-439, 3-[(2R)-4-(7-cyano-5-fluoro-1H-indole-1l-carbonyl)-2-ethylpiperazin-1-yl]-6-(2-ethoxyphenyl)-N-[(3R)-1-methylpyrrolidin-3-yl]pyridine-2-carboxamide]"
20,< 10,"CCOc1ncccc1-c1ccc(N2CCN(C(=O)c3ccc(Cl)cc3N3CC[C@H](N)C3)C[C@H]2CC)c(C(=O)NCCN)c1 [Compound 1-57, N-(2-aminoethyl)-2-[(2R)-4-{2-[(3S)-3-aminopyrrolidin-1-yl]-4-chlorobenzoyl}-2-ethylpiperazin-1-yl]-5-(2-ethoxypyridin-3-yl)benzamide]"
21,< 10,"CCOc1ccccc1-c1ccc(N2CCN(C(=O)N3CCc4cccc(C#N)c43)C[C@H]2CC)c(C(=O)NC2CN(C)C2)n1 [Compound 1-414, 3-[(2R)-4-(7-cyano-2,3-dihydro-1H-indole-1-carbonyl)-2-ethylpiperazin-1-yl]-6-(2-ethoxyphenyl)-N-(1-methylazetidin-3-yl)pyridine-2-carboxamide]"
22,< 10,"CCOc1ccccc1-c1ccc(N2CCN(C(=O)N3CCCC[C@H]3C(F)(F)F)C[C@H]2CC)c(C(=O)N[C@@H]2CCN(C)C2)n1 [Compound 1-433, 6-(2-ethoxyphenyl)-3-[(2R)-2-ethyl-4-[(2S)-2-(trifluoromethyl)piperidine-1-carbonyl]piperazin-1-yl]-N-[(3R)-1-methylpyrrolidin-3-yl]pyridine-2-carboxamide]"
23,< 10,"CCOc1ncccc1-c1ccc(N2CCN(C(=O)c3ccc(Cl)cc3C(F)(F)F)C[C@H]2CC)c(C(=O)NC[C@H]2CCN2C)n1 [Compound 1-231, 5-[(2R)-4-[4-chloro-2-(trifluoromethyl)benzoyl]-2-ethylpiperazin-1-yl]-2′-ethoxy-N-{[(2R)-1-methylazetidin-2-yl]methyl}-[2,3′-bipyridine]-6-carboxamide]"
24,10 to 100,"CCOc1ncccc1-c1ccc(N2CCN(C(=O)N3CCC[C@H]3C(F)(F)F)C[C@H]2CC)c(C(=O)NC[C@H]2CCN2C)n1 [Compound 1-386, 2′-ethoxy-5-[(2R)-2-ethyl-4-[(2S)-2-(trifluoromethyl)pyrrolidine-1-carbonyl]piperazin-1-yl]-N-{[(2R)-1-methylazetidin-2-yl]methyl}-[2,3′-bipyridine]-6-carboxamide]"
25,< 10,"CCOc1ncccc1-c1ccc(N2CCN(C(=O)c3ccc(OC)nc3C(F)(F)F)C[C@H]2CC)c(C(=O)N[C@@H]2CCN(C)C2)n1 [Compound 1-239, 2′-ethoxy-5-[(2R)-2-ethyl-4-[6-methoxy-2-(trifluoromethyl)pyridine-3-carbonyl]piperazin-1-yl]-N-[(3R)-1-methylpyrrolidin-3-yl]-[2,3′-bipyridine]-6-carboxamide]"

# From patent US10981894B2, “Melanocortin subtype-2 receptor (MC2R) antagonists and uses thereof” (Crinetics Pharmaceuticals, Inc., priority 2018, dated 2021)
